The results in this text go back to ChEMBL document CHEMBL5036339, “Synthesis and biological evaluation of indole-based peptidomimetics as antibacterial agents against Gram-positive bacteria” (Eur J Med Chem, 2021).

Broadly, the MIC is the least concentration at which growth counts as inhibited. As usually defined, the HC50 is the concentration that lyses half of the red blood cells.

Data set [1] relates to Escherichia coli. Description: Antibacterial activity against Escherichia coli ATCC25922 assessed as reduction in bacterial growth. The format is functional.
For data set [2], the system named is Staphylococcus aureus. Put plainly: Antibacterial activity against methicillin-resistant Staphylococcus aureus N315 assessed as reduction in bacterial growth. It is filed as functional.
Data set [3] relates to Staphylococcus aureus. Description: Antibacterial activity against Staphylococcus aureus ATCC29213 assessed as reduction in bacterial growth. The format is functional.
A short description of data set [4]: Hemolytic activity in rabbit erythrocytes assessed as concentration required to cause 50% hemolysis. It is filed as ADME, cell-based, Oryctolagus cuniculus, Erythrocyte.
In data set [5] the test system is Staphylococcus aureus. Put plainly: Antibacterial activity against methicillin-resistant Staphylococcus aureus NCTC 10442 assessed as reduction in bacterial growth. It is filed as functional.
Data set [6] concerns Staphylococcus aureus. Put plainly: Bactericidal activity against Staphylococcus aureus NCTC 10442 assessed as log reduction in bacterial growth at 4X MIC measured within 0.5 hr by time-kill kinetic assay. The format is functional. The settings on record: time hrs <=0.5.
For data set [7], the system named is Staphylococcus aureus. Put plainly: In vivo antibacterial activity against Staphylococcus aureus ATCC29213 in mouse bacterial keratitis model assessed as log reduction in bacterial load in infected cornea at 5%,TOP after 24 hour infection. The format is functional, organism-based.
Data set [8] relates to Staphylococcus aureus. Put plainly: Induction of drug resistance in Staphylococcus aureus ATCC29213 assessed as reduction in bacterial growth at 0.5 times MIC measured after 24 hr. It is filed as functional, organism-based.

In brackets after ≈: the same amount, converted by molar mass. Activity calls are given as the source filed them. The rule behind the calls is not given here. A value given as a limit tells only on which side of the number the result lay.

Consider `CC(C)=CCC/C(C)=C/Cn1cc(CC(=O)NCCN(CCN)CCN)c2ccccc21`, for which the MIC came to 25 µg/mL (≈ 56.9 µM) in data set [1], 1.56 µg/mL (≈ 3.55 µM) in data set [2], 1.56 µg/mL (≈ 3.55 µM) in data set [3] and 1.56 µg/mL (≈ 3.55 µM) in data set [5]. Further, the HC50 in data set [4] was determined as 208 µg/mL.
With `CC(C)=CCn1cc(CC(=O)NCCCNC(=N)N)c2ccccc21`, the MIC in data set [1] was greater than 100 µg/mL; in data set [2], 50 µg/mL (≈ 146 µM); in data set [3], 50 µg/mL (≈ 146 µM); in data set [5] it was 50 µg/mL (≈ 146 µM). Besides, the HC50 in data set [4] is greater than 200 µg/mL.
Regarding `CCOC(=O)Cc1c[nH]c2ccccc12`, the MIC was greater than 100 µg/mL in data set [1], greater than 50 µg/mL in data set [2], greater than 50 µg/mL in data set [3] and greater than 50 µg/mL in data set [5]. For the same compound, the HC50 in data set [4] was greater than 200 µg/mL.
`CC(C)=CCn1cc(CC(=O)N[C@@H](CCCNC(=N)N)C(N)=O)c2ccccc21`: the MIC in data set [1] is greater than 100 µg/mL; in data set [2] it was greater than 50 µg/mL; in data set [3] it was greater than 50 µg/mL; in data set [5], greater than 50 µg/mL. Moreover, the HC50 in data set [4] is greater than 200 µg/mL.
With `CC(C)=CCn1cc(CC(=O)NCCCN)c2ccccc21`, the MIC in data set [1] is greater than 100 µg/mL; in data set [2], greater than 50 µg/mL; in data set [3], greater than 50 µg/mL; in data set [5], greater than 50 µg/mL. Besides, the HC50 in data set [4] was greater than 200 µg/mL.
On to `CCOC(=O)Cc1cn(C/C=C(\C)CCC=C(C)C)c2ccccc12`, for which the MIC in data set [1] was greater than 100 µg/mL; in data set [2] it was greater than 50 µg/mL; in data set [3], greater than 50 µg/mL; in data set [5], greater than 50 µg/mL. In addition, the HC50 in data set [4] was greater than 200 µg/mL.
Take `COC(=O)[C@H](CCCNC(=N)N)NC(=O)Cc1cn(C/C=C(\C)CCC=C(C)C)c2ccccc12`: the MIC in data set [1] was determined as 12.5 µg/mL (≈ 26 µM); in data set [2], 3.12 µg/mL (≈ 6.49 µM); in data set [3], 3.12 µg/mL (≈ 6.49 µM); in data set [5] it was 3.12 µg/mL (≈ 6.49 µM). Further, the HC50 in data set [4] is 58.8 µg/mL.
For `CC(C)=CCC/C(C)=C/Cn1cc(CC(=O)NCCCN)c2ccccc21`, the MIC in data set [1] was 12.5 µg/mL (≈ 34 µM); in data set [2], 6.25 µg/mL (≈ 17 µM); in data set [3], 12.5 µg/mL (≈ 34 µM); in data set [5], 12.5 µg/mL (≈ 34 µM). Moreover, the HC50 in data set [4] is 178 µg/mL.
As for `CC(C)=CCC/C(C)=C/Cn1cc(CC(=O)N[C@@H](CCCNC(=N)N)C(=O)N[C@@H](CCCNC(=N)N)C(N)=O)c2ccccc21`, the MIC in data set [1] worked out at 50 µg/mL (≈ 80.3 µM); in data set [2], 3.12 µg/mL (≈ 5.02 µM); in data set [3] it was 3.12 µg/mL (≈ 5.02 µM); in data set [5], 3.12 µg/mL (≈ 5.02 µM). Besides, in data set [4], the HC50 was greater than 200 µg/mL.
On to `NC[C@H]1O[C@H](O[C@H]2[C@H](O)[C@@H](O[C@H]3O[C@H](CO)[C@@H](O)[C@H](N)[C@H]3O)[C@H](N)C[C@@H]2N)[C@H](O)[C@@H](O)[C@@H]1O` [KANAMYCIN], for which the MIC in data set [1] stood at 6.25 µg/mL (≈ 12.9 µM).
Take `COC(=O)[C@H](Cc1c[nH]cn1)NC(=O)Cc1cn(C/C=C(\C)CCC=C(C)C)c2ccccc12`: the MIC in data set [1] is greater than 100 µg/mL; in data set [2], greater than 50 µg/mL; in data set [3], greater than 50 µg/mL; in data set [5], greater than 50 µg/mL. For the same compound, the HC50 in data set [4] is greater than 200 µg/mL.
As to `CC(C)=CCC/C(C)=C/Cn1cc(CC(=O)NCCCN(C)C)c2ccccc21`, the MIC is 12.5 µg/mL (≈ 31.6 µM) in data set [1], 3.12 µg/mL (≈ 7.9 µM) in data set [2], 6.25 µg/mL (≈ 15.8 µM) in data set [3] and 6.25 µg/mL (≈ 15.8 µM) in data set [5]. For the same compound, the HC50 in data set [4] came out at 55.1 µg/mL.
In the case of `CN[C@H](CC(C)C)C(=O)N[C@H]1C(=O)N[C@@H](CC(N)=O)C(=O)N[C@H]2C(=O)N[C@H]3C(=O)N[C@H](C(=O)N[C@H](C(=O)O)c4cc(O)cc(O)c4-c4cc3ccc4O)[C@H](O)c3ccc(c(Cl)c3)Oc3cc2cc(c3O[C@@H]2O[C@H](CO)[C@@H](O)[C@H](O)[C@H]2O[C@H]2C[C@](C)(N)[C@H](O)[C@H](C)O2)Oc2ccc(cc2Cl)[C@H]1O` [VANCOMYCIN], the results for the MIC in data set [2], in data set [3] and in data set [5] were 1.56 µg/mL (≈ 1.08 µM), 0.78 µg/mL (≈ 0.538 µM) and 1.56 µg/mL (≈ 1.08 µM), respectively. The log reduction in data set [6] came to 0.5 log10 CFU/mL. The result in data set [7] was Active.
`C=CCCCCCn1cc(CC(=O)NCCN(CCN)CCN)c2ccccc21`: the MIC in data set [1] was greater than 50 µg/mL; in data set [2], 12.5 µg/mL (≈ 31.3 µM); in data set [3], 12.5 µg/mL (≈ 31.3 µM); in data set [5] it was 25 µg/mL (≈ 62.6 µM). Further, the HC50 in data set [4] was 140 µg/mL.
Take `COC(=O)[C@H](CCCNC(=N)N)NC(=O)[C@H](CCCNC(=N)N)NC(=O)Cc1cn(C/C=C(\C)CCC=C(C)C)c2ccccc12`: the MIC in data set [1] amounted to 50 µg/mL (≈ 78.4 µM); in data set [2] it was 3.12 µg/mL (≈ 4.9 µM); in data set [3], 3.12 µg/mL (≈ 4.9 µM); in data set [5] it was 1.56 µg/mL (≈ 2.45 µM). The HC50 in data set [4] is greater than 200 µg/mL.
As for `COC(=O)[C@H](CCCNC(=N)N)NC(=O)[C@H](CCCNC(=N)N)NC(=O)[C@H](CCCNC(=N)N)NC(=O)Cc1cn(C/C=C(\C)CCC=C(C)C)c2ccccc12`, the MIC in data set [1] is 50 µg/mL (≈ 63 µM); in data set [2], 1.56 µg/mL (≈ 1.96 µM); in data set [3], 3.12 µg/mL (≈ 3.94 µM); in data set [5], 1.56 µg/mL (≈ 1.96 µM). Further, the HC50 in data set [4] was greater than 200 µg/mL.
For `CC(C)=CCC/C(C)=C/Cn1cc(CC(=O)NCCCN2CCCC2)c2ccccc21`, the MIC is 50 µg/mL (≈ 119 µM) in data set [1], 6.25 µg/mL (≈ 14.8 µM) in data set [2], 6.25 µg/mL (≈ 14.8 µM) in data set [3] and 6.25 µg/mL (≈ 14.8 µM) in data set [5]. For the same compound, the HC50 in data set [4] was 47.6 µg/mL.
In the case of `CC(C)=CCC/C(C)=C/Cn1cc(CC(=O)N[C@@H](CCCNC(=N)N)C(N)=O)c2ccccc21`, the MIC in data set [1] was 25 µg/mL (≈ 53.6 µM); in data set [2], 3.12 µg/mL (≈ 6.7 µM); in data set [3] it was 3.12 µg/mL (≈ 6.7 µM); in data set [5], 3.12 µg/mL (≈ 6.7 µM). For the same compound, the HC50 in data set [4] came out at 119 µg/mL.
For `CCCCN(CCCC)CCCNC(=O)Cc1cn(C/C=C(\C)CCC=C(C)C)c2ccccc12`, the minimal inhibitory concentration (MIC) was greater than 100 µg/mL in data set [1], 3.12 µg/mL (≈ 6.51 µM) in data set [2], 3.12 µg/mL (≈ 6.51 µM) in data set [3] and 3.12 µg/mL (≈ 6.51 µM) in data set [5]. Further, in data set [4], the 50% haemolytic concentration (HC50) turned out to be 72.3 µg/mL.
Turning to `CCCCCCCCCCn1cc(CC(=O)NCCN(CCN)CCN)c2ccccc21`, the MIC in data set [1] turned out to be 12.5 µg/mL (≈ 28.2 µM); in data set [2], 1.56 µg/mL (≈ 3.52 µM); in data set [3], 1.56 µg/mL (≈ 3.52 µM); in data set [5], 1.56 µg/mL (≈ 3.52 µM). The HC50 in data set [4] was determined as 95.9 µg/mL.
As for `CCn1cc(C(=O)O)c(=O)c2cc(F)c(N3CCNCC3)cc21`, the outcome in data set [8] was Active.
Regarding `CC(C)=CCC/C(C)=C/Cn1cc(CC(=O)NCCCNC(=N)N)c2ccccc21`, the MIC is 12.5 µg/mL (≈ 30.5 µM) in data set [1], 1.56 µg/mL (≈ 3.81 µM) in data set [2], 1.56 µg/mL (≈ 3.81 µM) in data set [3] and 1.56 µg/mL (≈ 3.81 µM) in data set [5]. Moreover, the HC50 in data set [4] was found to be 733 µg/mL.
Take `COC(=O)[C@H](CCCNC(=N)N)NC(=O)Cc1cn(CC=C(C)C)c2ccccc12`: the minimal inhibitory concentration (MIC) was greater than 100 µg/mL in data set [1], 50 µg/mL (≈ 121 µM) in data set [2], 50 µg/mL (≈ 121 µM) in data set [3] and 50 µg/mL (≈ 121 µM) in data set [5]. In addition, in data set [4], the HC50 is greater than 200 µg/mL.
